This note sets out measurements from ChEMBL document CHEMBL1125961, “Monodeoxy-1,4:3,6-dianhydrohexitol nitrates” (1991).

The species named for one test is Oryctolagus cuniculus. The test can be described thus: Compound was evaluated for reduction of arterial medium pressure of rabbit by 30 mm Hg. The format is functional, Artery.
Test [1] concerns Rattus norvegicus. The test can be described thus: Compound was evaluated for T-wave increase of rat EKG measured as percent reduction after 30 min at a dosage of 60 mg/kg. The class given is functional.
Test [2] has as its system Rattus norvegicus. The test can be described thus: Compound was evaluated for T-wave increase of rat EKG measured as percent reduction after 30 min at a dosage of 200 mg/kg. The class given is functional.
Test [3] concerns Rattus norvegicus. The test can be described thus: Compound was evaluated for T-wave increase of rat EKG measured as percent reduction after 30 min at a dosage of 100 mg/kg; NE means no effect. The class given is functional, organism-based. Set-up: dose 100 mg/kg.
Test [4] concerns Rattus norvegicus. The test can be described thus: Compound was evaluated for T-wave increase of rat EKG measured as percent reduction after 30 min at a dosage of 4 mg/kg. The format is functional.
The subject of test [5] is Rattus norvegicus. The test can be described thus: Compound was evaluated for T-wave increase of rat EKG measured as percent reduction after 30 min at a dosage of 8 mg/kg. The class given is functional.
[6] abbreviates: Oryctolagus cuniculus, Artery, read-out: ED30.

Activity calls are given as the source filed them. The rule behind the calls is not given here.

In turn, `O=[N+]([O-])OC1CO[C@@H]2C(O)CO[C@H]12` (single isomer, unassigned) [ISOSORBIDE MONONITRATE] had an ED30 in the test listed under Oryctolagus cuniculus of 3.43 mg/kg. In addition, the Reduction with Rattus norvegicus [1] is on record as -43%.
Take `O=[N+]([O-])OC1COC2C1OC[C@@H]2Cl` (stereo in doubt; 5a): the ED30 in the test filed under Oryctolagus cuniculus (setting [6]) worked out at 0.1 mg/kg. Also, in the test with Rattus norvegicus [2], the Reduction is listed as -38%.
Molecule `O=[N+]([O-])OC1COC2C1OC[C@@H]2Cl` (stereo in doubt; 5b) [listing 1 of 2 here] returned an ED30 in the test filed under Oryctolagus cuniculus of 0.14 mg/kg.
As for `O=[N+]([O-])OC1COC2C1OC[C@@H]2Cl` (stereo in doubt; 5b) [listing 2 of 2 here], in the test with Rattus norvegicus [3], the Reduction result was “inactive”.
For `O=[N+]([O-])OC1COC2CCOC21` (stereo in doubt; 6a), in the test filed under Oryctolagus cuniculus (setting [6]), the ED30 was found to be 0.6 mg/kg. Also, the Reduction in the test with Rattus norvegicus [2] (200 mg/kg) is listed as -38%.
The molecule `O=[N+]([O-])OC1COC2CCOC21` (stereo in doubt; 6b) yielded an ED30 in the test filed under Oryctolagus cuniculus of 1 mg/kg. Also, the Reduction in the test with Rattus norvegicus [2] (200 mg/kg) is -33%.
With `O=[N+]([O-])O[C@H]1CO[C@H]2[C@@H]1OC[C@H]2O[N+](=O)[O-]` [ISOSORBIDE DINITRATE], in the test filed under Oryctolagus cuniculus (setting [6]), the ED30 worked out at 0.08 mg/kg. For the same molecule, the Reduction in the test on Rattus norvegicus [4] is listed as -75%.
For `O=[N+]([O-])O[C@@H]1CO[C@H]2[C@@H]1OC[C@@H]2O` [ISOSORBIDE MONONITRATE], the Reduction in the test with Rattus norvegicus [5] is recorded as -59%. For the same molecule, the ED30 in the test filed under Oryctolagus cuniculus turned out to be 0.31 mg/kg.
